Laboratory results taken from paper PMC11035696, “Prospective de novo drug design with deep interactome learning” (Nature Communications, 2024).
Where “and” joins values, the source holds several entries; their conditions need not be identical. Equal entries are not always repeated. Entries after “also recorded” stand apart in the source; their conditions may differ.

What was measured:
HISTAMINE H2 RECEPTOR = HISTAMINE H2 RECEPTOR (Homo sapiens, UniProt P25021); experiment: Safety off-target panel, binding; conditions: single point
Sequence of HISTAMINE H2 RECEPTOR (P25021 whole entry): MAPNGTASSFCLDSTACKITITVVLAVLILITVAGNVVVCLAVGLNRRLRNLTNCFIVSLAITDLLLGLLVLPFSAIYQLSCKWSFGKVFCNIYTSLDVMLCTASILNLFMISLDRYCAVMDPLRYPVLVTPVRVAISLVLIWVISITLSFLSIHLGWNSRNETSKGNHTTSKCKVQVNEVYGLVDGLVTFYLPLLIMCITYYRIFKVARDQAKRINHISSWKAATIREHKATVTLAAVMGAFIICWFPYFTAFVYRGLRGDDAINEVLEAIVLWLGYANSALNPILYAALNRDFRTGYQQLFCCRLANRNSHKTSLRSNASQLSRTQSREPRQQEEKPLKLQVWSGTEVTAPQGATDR
Description: (§1) Table S9-S12 list all targets, their species, inhibition (%) and assay type for the experiments conducted in the
(§2) off-targets. […] The numbers for mean
(§3) inhibition (%) represent single point measurements.
(§4) off-targets. […] The numbers for
(§5) mean inhibition (%) represent single point measurements.

GLUCOCORTICOID RECEPTOR = GLUCOCORTICOID RECEPTOR (Homo sapiens, UniProt P04150); experiment: Safety off-target panel, binding; conditions: single point
Sequence of UniProt P04150 (P04150 whole entry): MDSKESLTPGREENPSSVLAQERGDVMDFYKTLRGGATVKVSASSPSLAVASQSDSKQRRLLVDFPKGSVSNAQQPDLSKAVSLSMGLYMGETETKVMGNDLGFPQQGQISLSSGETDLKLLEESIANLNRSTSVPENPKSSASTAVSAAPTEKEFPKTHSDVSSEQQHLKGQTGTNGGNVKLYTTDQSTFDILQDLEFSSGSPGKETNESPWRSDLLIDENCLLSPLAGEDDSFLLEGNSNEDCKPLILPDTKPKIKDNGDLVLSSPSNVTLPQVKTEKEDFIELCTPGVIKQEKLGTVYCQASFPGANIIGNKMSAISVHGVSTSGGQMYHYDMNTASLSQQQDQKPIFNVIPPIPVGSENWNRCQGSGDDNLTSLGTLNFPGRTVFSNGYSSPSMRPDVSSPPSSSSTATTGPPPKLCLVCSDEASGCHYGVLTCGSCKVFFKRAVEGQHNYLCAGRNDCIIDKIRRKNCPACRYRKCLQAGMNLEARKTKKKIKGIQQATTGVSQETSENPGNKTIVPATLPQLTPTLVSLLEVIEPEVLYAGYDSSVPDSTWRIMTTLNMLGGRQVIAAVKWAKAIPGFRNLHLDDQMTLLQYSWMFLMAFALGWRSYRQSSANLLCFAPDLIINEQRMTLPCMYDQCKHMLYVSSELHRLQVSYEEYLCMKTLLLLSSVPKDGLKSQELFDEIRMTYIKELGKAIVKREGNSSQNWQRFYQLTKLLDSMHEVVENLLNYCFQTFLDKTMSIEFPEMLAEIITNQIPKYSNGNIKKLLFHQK
Description: as §1, §2, §3, §4, §5

ADENOSINE A1 RECEPTOR = ADENOSINE A1 RECEPTOR (Homo sapiens, UniProt P30542); experiment: Safety off-target panel, binding; conditions: single point
Sequence of ADENOSINE A1 RECEPTOR (P30542 whole entry): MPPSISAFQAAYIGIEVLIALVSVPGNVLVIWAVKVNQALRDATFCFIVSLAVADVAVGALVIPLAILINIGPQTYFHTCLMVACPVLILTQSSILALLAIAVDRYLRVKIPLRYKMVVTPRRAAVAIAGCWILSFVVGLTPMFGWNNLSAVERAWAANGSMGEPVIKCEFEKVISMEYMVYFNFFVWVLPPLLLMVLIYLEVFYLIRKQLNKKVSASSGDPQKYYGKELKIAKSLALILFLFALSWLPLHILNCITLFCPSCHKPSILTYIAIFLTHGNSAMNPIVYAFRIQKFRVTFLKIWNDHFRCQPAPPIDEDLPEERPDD
Description: as §1, §2, §3, §4, §5

liver X receptor (LXR)α = target: T1, liver X receptor (LXR)α (Homo sapiens, UniProt Q13133); experiment: Nuclear receptor selectivity profiling, hybrid reporter gene assay, LXRα; type: cell-based
T1 construct: LXRα (pFA-CMV-hLXRα-LBD[104], 1 μM TO901317); expressed in transfected cells; host or cells: HEK293T
T1 sequence (Q13133 209-447 limits assumed): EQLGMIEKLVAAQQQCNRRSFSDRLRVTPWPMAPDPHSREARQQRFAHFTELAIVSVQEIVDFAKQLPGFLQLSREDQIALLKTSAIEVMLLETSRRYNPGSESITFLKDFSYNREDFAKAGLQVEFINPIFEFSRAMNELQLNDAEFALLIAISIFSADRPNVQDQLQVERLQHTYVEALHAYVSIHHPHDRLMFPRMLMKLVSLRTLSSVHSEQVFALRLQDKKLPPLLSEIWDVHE
Protocol: PPAR activation was determined in uniform Gal4-hybrid reporter gene assays for the PPARα, PPARγ and PPARδ isoforms in HEK293T cells (German Collection of Microorganisms and Cell Culture GmbH, DSMZ) which were transiently transfected with pFR-Luc (Stratagene, La Jolla, CA, USA; reporter) and pRL-SV40 (Promega, Madison, WI, USA; internal control) and one pFA-CMV-hPPAR-LBD[97] clone, coding for the hinge region and ligand binding domain of the canonical isoform of human PPARα, PPARγ, PPARδ or respectively. Cells were cultured in Dulbecco’s modified Eagle’s medium (DMEM), high glucose supplemented with 10% fetal calf serum (FCS), sodium pyruvate (1 mM), penicillin (100 U ⋅ ml^-1), and streptomycin (100 μg ⋅ ml^-1) at 37 °C and 5% CO2 and seeded in 96-well plates (3 × 10^4 cells per well). After 24 h, medium was changed to Opti-MEM without supplements and cells were transiently transfected using Lipofectamine LTX reagent (Invitrogen) according to the manufacturer’s protocol. Five hours after transfection, cells were incubated with the test compounds in Opti-MEM supplemented with penicillin (100 U ⋅ ml^-1), streptomycin (100 μg ⋅ ml^-1) and 0.1% DMSO for 16 h before luciferase activity was measured using the Dual-Glo Luciferase Assay System (Promega) according to the manufacturer’s protocol on a Tecan Spark luminometer (Tecan Deutschland GmbH, Germany). Firefly luminescence was divided by Renilla luminescence and multiplied by 1000 resulting in relative light units (RLU) to normalize for transfection efficiency and cell growth. Fold activation was obtained by dividing the mean RLU of a test compound by the mean RLU of the untreated control. All samples were tested in at least three biologically independent experiments in duplicates. For dose-response curve fitting and calculation of EC50 values, the equation “[Agonist] versus response (variable slope—four parameters)” was used in GraphPad Prism (version 7.00, GraphPad Software, La Jolla, CA, USA) with fold activation data. The reference agonizts GW7647 (PPARα)[98],[99], pioglitazone (PPARγ)[100],[101] and L165,041 (PPARδ)[102],[103] were used to validate the assays and to monitor assay performance. Nuclear receptor selectivity profiling was performed with corresponding pFA-CMV-hNR-LBD clones and suitable reference agonizts on RARα (pFA-CMV-hRARα-LBD[104], 1 μM tretinoin), LXRα (pFA-CMV-hLXRα-LBD[104], 1 μM TO901317) and RXRα (pFA-CMV-h RXRα-LBD[105], 1 μM Bexarotene).

P-glycoprotein (Pgp) = P-glycoprotein (Pgp) efflux assay; type: in vitro ADME; conditions: mouse; for Papp: PAMPA, read-out: PgP Transport mouse permeability; for efflux ratio: not told, read-out: PgP Transport mouse apical efflux ratio
Protocol: (§6) Compounds 1–3 were characterized in a hybrid reporter gene assay for their agoniztic effect on human nuclear receptors PPARα/γ/δ, RXRα, FXRα, RARα in HEK293T cells. Compound 1 was tested in an isothermal titration calorimetry (ITC) assay to measure direct binding affinity to the ligand-binding domain of PPARγ. ADME properties were measured in standardized assays at Roche.
(§7) SI11Absorption Distribution Metabolism and Excretion and Toxicity Data
(§8) To assess the drug-like characteristics of the newly designed PPAR modulators, a series of tests were conducted covering various aspects of absorption, distribution, metabolism, and excretion (ADME) properties. Specifically, these assessments included the parallel artificial membrane permeability assay (PAMPA) with permeation co- […]
(§9) efficients ([…]), LogD measurements, microsomal clearance, hepatocyte clearance, P-glycoprotein (Pgp) efflux ratio and binding and the unbound free fraction. […]
(§10) Table S14: Absorption distribution metabolism and excretion (ADME) properties of compounds 1 and 2. The […]
(§11) values for […], LogD, protein binding, P-glycoprotein (Pgp) efflux ratio and permeability, and hepato-cyte clearance are presented as the mean and standard deviation, with a sample size of N = 3, i.e., 3 technical replicates each. The values for microsomal clearance and CYP-inhibition represent single point measurements. […]
PgP Transport mouse apical efflux ratio - 1.6 1.2
PgP Transport mouse permeability (nm·sec−1) - 15 60 […]

[1] = Lipophilicity (LogD pH 7.4); type: physicochemical
Protocol: as §6, §7, §8, §9, §10, §11

[2] = Protein binding, unbound free fraction; type: in vitro ADME; conditions: human, plasma
Protocol: as §6, §7, §8, §9, §10, §11

HEK293T cells = experiment: Cytotoxicity assay on HEK293T cells (Celltiter-glo); type: cell-based, human; conditions: 16 h and 24 h, 0.05–20 μM, range of cell numbers, result in words
Protocol: HEK293T cells were seeded at the indicated number per well in DMEM-high glucose, complemented with glutamax, pen-strep, and 10% FBS, in a total of 40 μl of medium. The cells were incubated overnight at 37 °C. Compounds were added to the cells at the indicated concentrations, resulting in a final Dimethylsulfoxid (DMSO) concentration of 0.2%. The compounds were incubated on the cells for either 16 h or 24 h. At the specified time point, the medium was carefully removed from the vessel, leaving only 2 μl in the wells. Celltiter-glo (CTG) reagent (G7572, Promega) was prepared according to the manufacturer’s instructions. Plates with cells were equilibrated at room temperature for 30 min. Subsequently, 25 μl of CTG reagent was added to the cells. The plates were then shaken for 2 min and incubated for an additional 15 min at room temperature. Luminescence was read afterward with BG Pherastar.

Compound | inhibition at 10 µM (HISTAMINE H2 RECEPTOR) [%] | inhibition at 10 µM (GLUCOCORTICOID RECEPTOR) [%] | inhibition at 10 µM (ADENOSINE A1 RECEPTOR) [%] | LXRα reporter activation, replicate values (DMSO ctrl = 1,000) (liver X receptor (LXR)α; 3 µM) | LXRα reporter activation, replicate values (DMSO ctrl = 1,000) (liver X receptor (LXR)α; 10 µM) | Papp (P-glycoprotein (Pgp)) [×10⁻⁶ cm/s] | efflux ratio (P-glycoprotein (Pgp)) | logD [1] | fraction unbound [2] | cytotoxicity on HEK293T cells (HEK293T cells)
COc1ccc(Oc2ccc3ncn(CCOc4ccc(CCC(=O)O)cc4)c3c2)cc1 [Compound 2] | -3.1 | -2.1 | -3.6 | 0,566 and 1,566 and 1,418 | 1,976 and 2,098 and 2,121 | 6 | 1.2 | 1.7 | 0.0042 | did not indicate any cytotoxicity; also recorded: No cytotoxic effects
Cc1nnc(-c2ccc(OCCCOc3ccc(CCC(=O)O)c(F)c3)c(F)c2)s1 [Compound 1] | 10.9 | -3.8 | 9.4 | 1,029 and 1,028 and 1,248 | 3,397 and 1,447 and 1,490 | 1.5 | 1.6 | 1.5 | 0.0021 | did not indicate any cytotoxicity; also recorded: No cytotoxic effects
